Measurements published in the NIST ThermoML archive (doi:10.1021/je060271a).
± gives the expanded uncertainty stated by the source.

Conditions: 303.15 K, Liquid, Vibrating tube method

CCCCC(=O)OCC(COC(=O)CCCC)(COC(=O)CCCC)COC(=O)CCCC [pentaerythritol tetrapentanoate]
Conditions	mass density [kg/m3]
1387.7 kPa	1011.7 ± 1.2
1391.5 kPa	1011.7 ± 1.2
1395 kPa	1011.6 ± 1.2
1398.3 kPa	1011.8 ± 1.2
1401.8 kPa	1011.7 ± 1.2
1405.8 kPa	1011.7 ± 1.2
1409.2 kPa	1011.8 ± 1.2
1413.1 kPa	1011.7 ± 1.2
1416.4 kPa	1011.8 ± 1.2
1419.7 kPa	1011.8 ± 1.2
1423.1 kPa	1011.7 ± 1.2
1427 kPa	1011.8 ± 1.2
1430.8 kPa	1011.8 ± 1.2
1434.2 kPa	1011.9 ± 1.2
1437.9 kPa	1011.6 ± 1.2
1441.9 kPa	1011.8 ± 1.2
1445.5 kPa	1011.7 ± 1.2
1449 kPa	1011.8 ± 1.2
1453.3 kPa	1011.8 ± 1.2
1456.6 kPa	1011.8 ± 1.2
1460.5 kPa	1011.7 ± 1.2
1464.6 kPa	1011.9 ± 1.2
1467.9 kPa	1011.8 ± 1.2
1471.8 kPa	1011.8 ± 1.2
1475.9 kPa	1011.8 ± 1.2
1479.9 kPa	1011.8 ± 1.2
1483.5 kPa	1011.8 ± 1.2
1487 kPa	1011.7 ± 1.2
1491.7 kPa	1011.8 ± 1.2
1495.5 kPa	1011.9 ± 1.2
1499.2 kPa	1011.8 ± 1.2
1503.7 kPa	1011.9 ± 1.2
1507.5 kPa	1011.7 ± 1.2
1511.2 kPa	1011.8 ± 1.2
1515 kPa	1011.7 ± 1.2
1519.8 kPa	1011.7 ± 1.2
1523.7 kPa	1011.8 ± 1.2
1527.3 kPa	1011.8 ± 1.2
1532.2 kPa	1011.8 ± 1.2
1536 kPa	1011.7 ± 1.2
1540 kPa	1011.8 ± 1.2
1544.5 kPa	1011.8 ± 1.2
1548.8 kPa	1011.7 ± 1.2
1552.7 kPa	1011.8 ± 1.2
1556.3 kPa	1011.9 ± 1.2
1561.3 kPa	1011.9 ± 1.2
1565.3 kPa	1011.8 ± 1.2
1569.5 kPa	1011.8 ± 1.2
1573.5 kPa	1011.9 ± 1.2
1577.5 kPa	1011.9 ± 1.2
1581.8 kPa	1011.9 ± 1.2
1585.8 kPa	1011.8 ± 1.2
1590.8 kPa	1011.9 ± 1.2
1595 kPa	1011.8 ± 1.2
1599 kPa	1011.9 ± 1.2
1604.2 kPa	1011.9 ± 1.2
1608.2 kPa	1011.9 ± 1.2
1612.5 kPa	1011.9 ± 1.2
1617.8 kPa	1012 ± 1.2
1621.9 kPa	1011.9 ± 1.2
1626.6 kPa	1011.9 ± 1.2
1630.8 kPa	1011.8 ± 1.2
1635 kPa	1011.9 ± 1.2
1640 kPa	1012 ± 1.2
1644.2 kPa	1012 ± 1.2
1648.7 kPa	1011.8 ± 1.2
1653.9 kPa	1012.1 ± 1.2
1658.9 kPa	1011.8 ± 1.2
1663.4 kPa	1011.9 ± 1.2
1668.6 kPa	1011.9 ± 1.2
1673.2 kPa	1011.8 ± 1.2
1677.7 kPa	1011.8 ± 1.2
1683.2 kPa	1011.9 ± 1.2
1687.7 kPa	1012.1 ± 1.2
1692.6 kPa	1012 ± 1.2
1697.3 kPa	1011.9 ± 1.2
1703 kPa	1011.9 ± 1.2
1707.7 kPa	1012 ± 1.2
1712 kPa	1011.9 ± 1.2
1717.8 kPa	1011.9 ± 1.2
1722.5 kPa	1011.9 ± 1.2
1727.3 kPa	1012 ± 1.2
1732.9 kPa	1011.9 ± 1.2
1737.7 kPa	1012.1 ± 1.2
1742.9 kPa	1012.1 ± 1.2
1747.8 kPa	1012 ± 1.2
1753.7 kPa	1011.9 ± 1.2
1758.4 kPa	1012 ± 1.2
1763.8 kPa	1012 ± 1.2
1768.6 kPa	1012 ± 1.2
1774.7 kPa	1011.9 ± 1.2
1779.9 kPa	1012.1 ± 1.2
1784.9 kPa	1012 ± 1.2
1791 kPa	1011.9 ± 1.2
1796 kPa	1012 ± 1.2
1800.9 kPa	1012.1 ± 1.2
1807.3 kPa	1012 ± 1.2
1812.5 kPa	1012 ± 1.2
1817.6 kPa	1012.1 ± 1.2
1824 kPa	1011.9 ± 1.2
1829.5 kPa	1012.1 ± 1.2
1834.9 kPa	1012 ± 1.2
1840.1 kPa	1012 ± 1.2
1846.6 kPa	1012 ± 1.2
1852.1 kPa	1012 ± 1.2
1857.5 kPa	1012 ± 1.2
1862.9 kPa	1012 ± 1.2
1869.5 kPa	1012.1 ± 1.2
1874.8 kPa	1012.1 ± 1.2
1881.8 kPa	1012 ± 1.2
1887 kPa	1012.1 ± 1.2
1892.9 kPa	1012 ± 1.2
1898.6 kPa	1012.1 ± 1.2
1904.4 kPa	1012 ± 1.2
1911.3 kPa	1012.1 ± 1.2
1916.8 kPa	1012.1 ± 1.2
1923.1 kPa	1012.1 ± 1.2
1930 kPa	1012 ± 1.2
1935.6 kPa	1012.1 ± 1.2
1941.3 kPa	1011.9 ± 1.2
1947.2 kPa	1012.1 ± 1.2
1954.3 kPa	1012 ± 1.2
1960.6 kPa	1012 ± 1.2
1966.7 kPa	1012.1 ± 1.2
1972.9 kPa	1012.1 ± 1.2
1980.4 kPa	1012.1 ± 1.2
1986.3 kPa	1012.1 ± 1.2
1992.3 kPa	1012.1 ± 1.2
1999.8 kPa	1012.1 ± 1.2
2006.4 kPa	1012.1 ± 1.2
2012.5 kPa	1012.1 ± 1.2
2018.9 kPa	1012.1 ± 1.2
2026.4 kPa	1012.1 ± 1.2
2033.5 kPa	1012.1 ± 1.2
2039.7 kPa	1012.1 ± 1.2
2046.1 kPa	1012.1 ± 1.2
2053.9 kPa	1012.3 ± 1.2
2060.5 kPa	1012.1 ± 1.2
2068.3 kPa	1012.2 ± 1.2
2074.9 kPa	1012.1 ± 1.2
2081.9 kPa	1012.2 ± 1.2
2090 kPa	1012.3 ± 1.2
2096.8 kPa	1012.1 ± 1.2
2103.5 kPa	1012.2 ± 1.2
2109.8 kPa	1012.1 ± 1.2
2118.5 kPa	1012.2 ± 1.2
2125.2 kPa	1012.1 ± 1.2
2132.5 kPa	1012.3 ± 1.2
2140.9 kPa	1012.4 ± 1.2
2147.8 kPa	1012.2 ± 1.2
2155.4 kPa	1012.3 ± 1.2
2162.7 kPa	1012.2 ± 1.2
2170 kPa	1012.3 ± 1.2
2178.5 kPa	1012.3 ± 1.2
2185.3 kPa	1012.3 ± 1.2
2192.6 kPa	1012.2 ± 1.2
2201.3 kPa	1012.3 ± 1.2
2208.7 kPa	1012.3 ± 1.2
2216.2 kPa	1012.1 ± 1.2
2223.6 kPa	1012.2 ± 1.2
